Data as given in ChEMBL document CHEMBL5696442, “Discovery of type II inhibitors of TGFβ-activated kinase 1 (TAK1) and mitogen-activated protein kinase kinase kinase kinase 2 (MAP4K2)” (J Med Chem, 2015).
Active and inactive are the calls of the source. The rule behind the calls is not given here.

What was measured:
[1] = molecular target: TRAF2 and NCK-interacting protein kinase (Homo sapiens) (UniProt Q9UKE5); assay: Inhibition of ZC2/TNIK Lys1 labeling site in human Huh-7 cell lysate at 1 uM by KiNativ Profiling analysis relative to control; type: subcellular
[2] = molecular target: Phosphatidylinositol 4,5-bisphosphate 3-kinase catalytic subunit gamma isoform (Homo sapiens) (UniProt P48736); assay: Inhibition of PIK3CG (unknown origin) at 10 uM by Ambit Kinomescan binding assay
[3] = molecular target: Mitogen-activated protein kinase 3 (Homo sapiens) (UniProt P27361); assay: Inhibition of Erk1 Lys2 labeling site harbouring DLKPSNLLINTTCDLK in human A-375 cells at 0.05 uM by KiNativ Profiling analysis relative to control; type: cell-based
[4] = molecular target: T1, Mitogen-activated protein kinase kinase kinase 2 (Homo sapiens) (UniProt Q9Y2U5); assay: Inhibition of MAP3K2 Lys2 labeling site in human A-375 cells at 0.05 uM by KiNativ Profiling analysis relative to control; type: cell-based
T1 sequence (whole entry): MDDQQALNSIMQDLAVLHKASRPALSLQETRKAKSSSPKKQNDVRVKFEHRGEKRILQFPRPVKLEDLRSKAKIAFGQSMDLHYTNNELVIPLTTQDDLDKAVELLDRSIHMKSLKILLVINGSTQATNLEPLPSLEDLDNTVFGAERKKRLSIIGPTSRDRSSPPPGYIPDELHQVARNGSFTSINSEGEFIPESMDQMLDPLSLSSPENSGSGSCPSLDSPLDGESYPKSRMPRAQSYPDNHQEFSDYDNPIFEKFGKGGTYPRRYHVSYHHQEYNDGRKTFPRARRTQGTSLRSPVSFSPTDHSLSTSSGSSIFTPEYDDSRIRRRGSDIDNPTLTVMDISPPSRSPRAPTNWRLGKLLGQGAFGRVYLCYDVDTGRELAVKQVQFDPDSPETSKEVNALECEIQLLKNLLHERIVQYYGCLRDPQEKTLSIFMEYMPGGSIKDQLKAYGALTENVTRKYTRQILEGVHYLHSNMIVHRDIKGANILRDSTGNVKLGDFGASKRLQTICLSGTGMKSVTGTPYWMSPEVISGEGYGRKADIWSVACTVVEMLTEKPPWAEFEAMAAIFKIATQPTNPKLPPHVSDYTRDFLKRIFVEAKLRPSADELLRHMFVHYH

[5] = molecular target: T2, Inhibitor of nuclear factor kappa-B kinase subunit epsilon (Homo sapiens) (UniProt Q14164); assay: Inhibition of IKKe K2 labeling site in human Huh-7 cells at 10 uM by KiNativ Profiling analysis relative to control; type: cell-based
T2 sequence (whole entry): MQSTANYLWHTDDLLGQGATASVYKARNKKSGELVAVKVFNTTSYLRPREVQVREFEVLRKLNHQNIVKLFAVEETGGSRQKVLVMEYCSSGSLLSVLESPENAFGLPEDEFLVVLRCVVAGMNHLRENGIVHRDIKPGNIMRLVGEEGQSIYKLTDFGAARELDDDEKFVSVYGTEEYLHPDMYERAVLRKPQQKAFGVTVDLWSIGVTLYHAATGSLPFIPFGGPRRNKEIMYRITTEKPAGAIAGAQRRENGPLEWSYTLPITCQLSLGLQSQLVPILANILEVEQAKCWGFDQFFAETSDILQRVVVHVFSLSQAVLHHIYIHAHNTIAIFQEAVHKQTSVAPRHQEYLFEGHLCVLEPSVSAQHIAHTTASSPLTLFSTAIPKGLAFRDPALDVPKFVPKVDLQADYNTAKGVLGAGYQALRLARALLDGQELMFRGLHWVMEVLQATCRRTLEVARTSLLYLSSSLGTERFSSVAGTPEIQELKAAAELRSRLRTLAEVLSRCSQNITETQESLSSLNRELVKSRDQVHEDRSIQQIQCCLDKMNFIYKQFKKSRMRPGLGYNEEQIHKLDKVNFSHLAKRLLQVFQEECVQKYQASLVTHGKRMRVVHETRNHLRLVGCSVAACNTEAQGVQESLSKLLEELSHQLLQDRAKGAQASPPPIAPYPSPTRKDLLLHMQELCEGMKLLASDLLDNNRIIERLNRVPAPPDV

[6] = molecular target: Serine/threonine-protein kinase PLK1 (Homo sapiens) (UniProt P53350); assay: Inhibition of PLK1 Lys2 labeling site in human A-375 cells at 0.05 uM by KiNativ Profiling analysis relative to control; type: cell-based
[7] = molecular target: Muscle, skeletal receptor tyrosine-protein kinase (Homo sapiens) (UniProt O15146); assay: Inhibition of MUSK (unknown origin) at 1 uM by Ambit Kinomescan binding assay relative to control; values are per cent of control
[8] = system: Proto-oncogene tyrosine-protein kinase receptor Ret (Homo sapiens), P07949 [V804M]; assay: Inhibition of RET V804M mutant (unknown origin) at 1 uM by Ambit Kinomescan binding assay relative to control; values are per cent of control
Chain of Proto-oncogene tyrosine-protein kinase receptor Ret (Homo sapiens), P07949 [V804M] (P07949 whole entry V804M): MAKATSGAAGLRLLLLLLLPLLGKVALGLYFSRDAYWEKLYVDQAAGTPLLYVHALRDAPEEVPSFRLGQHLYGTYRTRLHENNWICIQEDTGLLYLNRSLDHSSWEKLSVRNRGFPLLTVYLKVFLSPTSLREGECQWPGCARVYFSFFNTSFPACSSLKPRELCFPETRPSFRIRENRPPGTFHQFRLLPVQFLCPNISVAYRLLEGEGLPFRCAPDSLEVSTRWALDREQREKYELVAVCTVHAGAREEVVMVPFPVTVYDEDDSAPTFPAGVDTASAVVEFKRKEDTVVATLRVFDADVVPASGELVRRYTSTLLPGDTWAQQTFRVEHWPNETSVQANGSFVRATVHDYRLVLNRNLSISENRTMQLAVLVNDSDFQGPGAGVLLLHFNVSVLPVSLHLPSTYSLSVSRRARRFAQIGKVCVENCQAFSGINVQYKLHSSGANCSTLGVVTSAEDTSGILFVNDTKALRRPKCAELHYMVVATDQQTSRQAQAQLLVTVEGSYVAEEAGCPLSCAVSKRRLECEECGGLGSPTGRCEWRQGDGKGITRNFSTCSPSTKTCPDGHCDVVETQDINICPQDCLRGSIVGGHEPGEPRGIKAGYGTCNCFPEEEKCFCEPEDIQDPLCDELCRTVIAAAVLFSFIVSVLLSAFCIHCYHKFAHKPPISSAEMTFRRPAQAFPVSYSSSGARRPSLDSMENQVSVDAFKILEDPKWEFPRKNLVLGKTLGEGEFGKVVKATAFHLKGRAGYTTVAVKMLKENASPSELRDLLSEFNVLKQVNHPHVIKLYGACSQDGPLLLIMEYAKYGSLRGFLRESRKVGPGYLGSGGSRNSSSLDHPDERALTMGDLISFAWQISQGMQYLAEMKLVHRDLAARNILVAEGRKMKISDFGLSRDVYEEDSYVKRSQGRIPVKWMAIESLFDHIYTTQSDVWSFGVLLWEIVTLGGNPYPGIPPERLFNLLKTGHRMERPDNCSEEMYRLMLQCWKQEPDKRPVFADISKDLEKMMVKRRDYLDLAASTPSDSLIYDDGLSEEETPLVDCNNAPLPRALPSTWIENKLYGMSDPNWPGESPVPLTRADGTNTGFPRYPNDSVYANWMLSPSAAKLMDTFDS

Chain of TRAF2 and NCK-interacting protein kinase (Homo sapiens) (Q9UKE5 whole entry, looked up, canonical isoform): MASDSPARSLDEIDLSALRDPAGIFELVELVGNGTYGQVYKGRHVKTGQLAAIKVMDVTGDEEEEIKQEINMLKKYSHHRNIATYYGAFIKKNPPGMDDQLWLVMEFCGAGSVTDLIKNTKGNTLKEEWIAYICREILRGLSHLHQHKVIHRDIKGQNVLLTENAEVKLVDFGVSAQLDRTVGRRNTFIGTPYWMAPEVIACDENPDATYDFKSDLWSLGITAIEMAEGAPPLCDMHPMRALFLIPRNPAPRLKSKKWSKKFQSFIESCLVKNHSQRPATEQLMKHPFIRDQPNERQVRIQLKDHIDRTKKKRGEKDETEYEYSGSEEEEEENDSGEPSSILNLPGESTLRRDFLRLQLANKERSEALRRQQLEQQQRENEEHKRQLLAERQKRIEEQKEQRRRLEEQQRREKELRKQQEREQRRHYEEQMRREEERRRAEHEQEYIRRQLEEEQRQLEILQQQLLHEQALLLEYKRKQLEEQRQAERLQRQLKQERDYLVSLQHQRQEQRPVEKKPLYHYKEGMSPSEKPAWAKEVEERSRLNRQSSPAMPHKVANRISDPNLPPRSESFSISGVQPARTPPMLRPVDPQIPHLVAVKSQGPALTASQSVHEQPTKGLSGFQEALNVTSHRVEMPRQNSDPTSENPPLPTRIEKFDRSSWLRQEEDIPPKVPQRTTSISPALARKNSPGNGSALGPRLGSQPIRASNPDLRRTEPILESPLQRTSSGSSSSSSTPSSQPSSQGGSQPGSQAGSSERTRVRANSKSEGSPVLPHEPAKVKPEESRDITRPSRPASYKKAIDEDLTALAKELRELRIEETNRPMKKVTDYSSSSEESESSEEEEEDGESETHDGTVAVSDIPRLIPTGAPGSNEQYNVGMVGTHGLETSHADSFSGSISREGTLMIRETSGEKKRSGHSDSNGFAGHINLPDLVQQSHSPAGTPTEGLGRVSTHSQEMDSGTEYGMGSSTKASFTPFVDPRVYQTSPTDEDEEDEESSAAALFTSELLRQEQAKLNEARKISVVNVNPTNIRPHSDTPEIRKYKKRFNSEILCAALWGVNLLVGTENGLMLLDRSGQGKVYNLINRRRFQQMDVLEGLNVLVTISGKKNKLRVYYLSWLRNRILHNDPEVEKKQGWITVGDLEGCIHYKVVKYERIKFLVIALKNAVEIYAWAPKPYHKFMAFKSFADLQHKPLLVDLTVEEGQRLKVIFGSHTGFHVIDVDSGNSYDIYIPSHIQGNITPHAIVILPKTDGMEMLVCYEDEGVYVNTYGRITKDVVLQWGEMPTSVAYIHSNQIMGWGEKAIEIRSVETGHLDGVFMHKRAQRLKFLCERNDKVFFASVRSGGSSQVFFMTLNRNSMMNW
Chain of Serine/threonine-protein kinase PLK1 (Homo sapiens) (P53350 whole entry): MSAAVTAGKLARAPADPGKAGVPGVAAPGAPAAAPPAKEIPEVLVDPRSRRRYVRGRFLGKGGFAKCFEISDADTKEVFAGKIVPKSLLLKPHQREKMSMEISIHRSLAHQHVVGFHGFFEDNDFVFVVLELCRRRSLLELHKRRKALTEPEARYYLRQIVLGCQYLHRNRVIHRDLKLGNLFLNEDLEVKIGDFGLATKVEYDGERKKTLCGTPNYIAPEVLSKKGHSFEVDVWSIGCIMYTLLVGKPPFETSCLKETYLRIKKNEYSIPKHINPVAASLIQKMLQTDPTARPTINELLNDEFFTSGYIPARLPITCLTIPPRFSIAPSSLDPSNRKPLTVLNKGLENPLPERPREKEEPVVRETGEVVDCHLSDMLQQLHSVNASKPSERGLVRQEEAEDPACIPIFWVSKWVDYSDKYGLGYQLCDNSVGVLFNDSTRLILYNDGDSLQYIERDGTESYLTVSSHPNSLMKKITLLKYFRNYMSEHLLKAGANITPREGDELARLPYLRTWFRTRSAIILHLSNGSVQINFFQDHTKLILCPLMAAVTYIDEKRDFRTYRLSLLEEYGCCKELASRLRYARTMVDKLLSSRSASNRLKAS
Chain of Mitogen-activated protein kinase 3 (Homo sapiens) (P27361 whole entry): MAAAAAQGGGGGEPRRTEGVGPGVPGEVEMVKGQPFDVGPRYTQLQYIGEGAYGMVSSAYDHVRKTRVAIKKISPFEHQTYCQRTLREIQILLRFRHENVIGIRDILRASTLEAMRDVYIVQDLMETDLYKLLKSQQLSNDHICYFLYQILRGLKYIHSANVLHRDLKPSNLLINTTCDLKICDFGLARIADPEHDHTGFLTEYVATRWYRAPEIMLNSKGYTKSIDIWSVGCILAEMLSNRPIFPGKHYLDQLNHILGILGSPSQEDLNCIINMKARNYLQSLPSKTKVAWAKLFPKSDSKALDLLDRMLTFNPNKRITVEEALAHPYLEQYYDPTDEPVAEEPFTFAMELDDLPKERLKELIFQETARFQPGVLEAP
Chain of Muscle, skeletal receptor tyrosine-protein kinase (Homo sapiens) (O15146 whole entry): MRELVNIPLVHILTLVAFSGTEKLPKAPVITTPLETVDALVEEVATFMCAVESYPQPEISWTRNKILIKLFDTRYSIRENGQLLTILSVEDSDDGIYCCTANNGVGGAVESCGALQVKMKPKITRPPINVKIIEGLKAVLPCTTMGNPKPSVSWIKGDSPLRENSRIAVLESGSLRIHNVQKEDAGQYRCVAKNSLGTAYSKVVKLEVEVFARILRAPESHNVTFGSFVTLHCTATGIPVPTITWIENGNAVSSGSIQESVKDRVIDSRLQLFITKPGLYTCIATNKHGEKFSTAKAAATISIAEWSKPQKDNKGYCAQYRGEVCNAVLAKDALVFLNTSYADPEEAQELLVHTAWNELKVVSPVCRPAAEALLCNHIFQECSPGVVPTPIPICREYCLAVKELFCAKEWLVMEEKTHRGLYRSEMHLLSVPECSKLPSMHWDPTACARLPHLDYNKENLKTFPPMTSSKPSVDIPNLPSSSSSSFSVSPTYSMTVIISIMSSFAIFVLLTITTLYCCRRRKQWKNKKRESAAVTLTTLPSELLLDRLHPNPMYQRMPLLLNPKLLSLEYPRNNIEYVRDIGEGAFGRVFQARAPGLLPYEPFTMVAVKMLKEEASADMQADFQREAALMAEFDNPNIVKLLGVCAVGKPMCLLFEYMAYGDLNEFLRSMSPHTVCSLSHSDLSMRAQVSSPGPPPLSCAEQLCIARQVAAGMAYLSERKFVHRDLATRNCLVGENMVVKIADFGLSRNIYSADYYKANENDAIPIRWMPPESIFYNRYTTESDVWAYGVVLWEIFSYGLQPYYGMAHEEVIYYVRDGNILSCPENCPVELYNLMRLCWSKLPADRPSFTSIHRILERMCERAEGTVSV

CNc1cc(Oc2cc(C(=O)Nc3cc(N4CCN(C)CC4)cc(C(F)(F)F)c3)ccc2C)ncn1
inhibition [1]: 11.9%

CCN1CCN(Cc2ccc(NC(=O)c3ccc(C)c(Oc4ccnc5[nH]ccc45)c3)cc2C(F)(F)F)CC1
inhibition [2]: inactive
inhibition [3]: 0.9%
inhibition [4]: 7.6%
inhibition [5]: 8.4%

CCN1CCN(Cc2ccc(NC(=O)c3ccc(C)c(/C=C/c4cnc5[nH]ccc5c4OC)c3)cc2C(F)(F)F)CC1
inhibition [6]: 1.3%
residual activity [7]: 2%
percent of control [8]: 0.8%
